Measurements reported in ChEMBL document CHEMBL4296182, “CO-ADD screening of NIH NCI Diversity Set V”.
≈ marks a conversion by molar mass, not a printed value.

What was measured:
[1] = system: Pseudomonas aeruginosa; assay: microbe, parasite or virus in culture; conditions: ATCC 27853, 18 h, ASSAY_TEST Inhibition of Bacterial Growth, detection method Absorption (OD600), MEDIA CAMHB, plate type 384well, NBS, CORNING #3640
Description: Antibacterial activity against Pseudomonas aeruginosa ATCC 27853 (CO-ADD:GN_042); MIC in CAMBH media using NBS plates, by OD(600)

[2] = system: HEK293; assay: cells; format: functional; conditions: Homo sapiens, ATCC CRL1573, HEK293; ASSAY_TEST Inhibition of Cell Viability; detection method Resazurin; Fluorescence (ex560/em590); MEDIA DMEM with 10% FBS; plate type 384well; TC; CORNING #3712; time 18 hr
[3] = system: Cryptococcus neoformans
Description: Antifungal activity against Cryptococcus neoformans H99 ATCC 208821 (CO-ADD:FG_002); MIC in YNB media using NBS plates, by Resazurin OD(600-570)

[4] = system: Escherichia coli; assay: microbe, parasite or virus in culture; conditions: ATCC 25922, 18 h, ASSAY_TEST Inhibition of Bacterial Growth, detection method Absorption (OD600), MEDIA CAMHB, plate type 384well, NBS, CORNING #3640
Description: Antibacterial activity against Escherichia coli ATCC 25922 (CO-ADD:GN_001); MIC in CAMBH media using NBS plates, by OD(600)

[5] = system: Klebsiella pneumoniae; assay: microbe, parasite or virus in culture; conditions: ATCC 700603, 18 h, ASSAY_TEST Inhibition of Bacterial Growth, detection method Absorption (OD600), MEDIA CAMHB, plate type 384well, NBS, CORNING #3640
Description: Antibacterial activity against Klebsiella pneumoniae MDR ATCC 70063 (CO-ADD:GN_003); MIC in CAMBH media using NBS plates, by OD(600)

[6] = system: Staphylococcus aureus; assay: microbe, parasite or virus in culture; conditions: ATCC 43300, 18 h, ASSAY_TEST Inhibition of Bacterial Growth, detection method Absorption (OD600), MEDIA CAMHB, plate type 384well, NBS, CORNING #3640
Description: Antibacterial activity against Staphylococcus aureus MRSA ATCC 43300 (CO-ADD:GP_020); MIC in CAMBH media, using NBS plates, by OD(600)

[7] = system: Acinetobacter baumannii; assay: microbe, parasite or virus in culture; conditions: ATCC 19606, 18 h, ASSAY_TEST Inhibition of Bacterial Growth, detection method Absorption (OD600), MEDIA CAMHB, plate type 384well, NBS, CORNING #3640
Description: Antibacterial activity against Acinetobacter baumannii ATCC 19606 (CO-ADD:GN_034); MIC in CAMBH media using NBS plates, by OD600

[8] = system: Candida albicans; assay: microbe, parasite or virus in culture; conditions: ATCC 90028, ASSAY_TEST Inhibition of Fungal Growth, detection method Absorption (OD530), plate type 384well, NBS, CORNING #3640
Description: Antifungal activity against Candida albicans ATCC 90028 (CO-ADD:FG_001); MIC in YNB media using NBS plates, by OD630

| MIC [1] [µM] | MIC [3] [µM] | MIC [4] [µM] | MIC [5] [µM] | MIC [6] [µM] | MIC [7] [µM] | MIC [8] [µM] | Structure (SMILES) | CC50 [2] [µM] |
| --- | --- | --- | --- | --- | --- | --- | --- | --- |
| > 10 | > 10 | > 10 | > 10 | > 10 | > 10 | > 10 | Oc1c(CN2CCN(c3ccccc3)CC2)cc(Br)c2cccnc12 | > 10 |
| > 10 | > 10 | > 10 | > 10 | > 10 | > 10 | > 10 | OC(c1cc(-c2ccc(Cl)cc2)nc2ccccc12)C1CCCCN1 (centres undefined) | > 10 |
| > 10 | > 10 | > 10 | > 10 | > 10 | > 10 | > 10 | Cc1ccc(NCCN(C)C)c2c(=O)c3cc(O)ccc3sc12 | 1.3 |
| > 10 | 5 (≈ 2.52 µg/mL) | 10 (≈ 5.05 µg/mL) | > 10 | 10 (≈ 5.05 µg/mL) | > 10 | > 10 | Cn1ccc(=Nc2ccc(NC(=O)c3ccc(/N=c4\ccn(C)c5ccc([N+](=O)[O-])cc45)cc3)cc2)cc1 | > 10 |
| 10 (≈ 3.34 µg/mL) | > 10 | 1.25 (≈ 0.418 µg/mL) | > 10 | 0.156 (≈ 0.0523 µg/mL) | 5 (≈ 1.67 µg/mL) | > 10 | CO[C@@]12[C@H](COC(N)=O)C3=C(C(=O)C(C)=C(N)C3=O)N1C[C@@H]1N[C@@H]12 [MITOMYCIN] | 9.02 |
| > 10 | > 10 | > 10 | > 10 | > 10 | > 10 | > 10 | Nc1ccc(S(=O)(=O)Nc2cnc3ccccc3n2)cc1 [SULFAQUINOXALINE] | > 10 |

| Structure (SMILES) | MIC [1] [µM] | MIC [3] [µM] | MIC [4] [µM] | MIC [5] [µM] | MIC [6] [µM] | MIC [7] [µM] | MIC [8] [µM] | CC50 [2] [µM] |
| --- | --- | --- | --- | --- | --- | --- | --- | --- |
| COC(=O)C1C(O)C(C)C(O)C(C)/C=C\C=C(/C)C(=O)Nc2c(C)c(OC(C)=O)c3c(c2O)C(=O)C(C)=C2OCOC(=C23)/C(C)=C/C(C)(O)C(O)C(C)C1O (centres undefined) | > 10 | > 10 | > 10 | > 10 | 1.25 (≈ 0.962 µg/mL) | > 10 | > 10 | 9.11 |
| CC1=C(O)C(=O)C=C2C1=CC=C1[C@@]2(C)CC[C@@]2(C)[C@@H]3C[C@](C)(C(=O)O)CC[C@]3(C)CC[C@]12C [CELASTROL] | > 10 | > 10 | > 10 | > 10 | 2.5 (≈ 1.13 µg/mL) | > 10 | > 10 | 0.837 |
